Data set [1] can be described thus: Clearance in […] Wistar rat at 0.5 mg/kg, iv and 2 mg/kg, po. To be noted: in vivo. In kind it is ADME, organism-based.
The nature of data set [2]: Oral bioavailability in […] Wistar rat at 2 mg/kg. The settings on record: in vivo. In kind it is ADME, organism-based.
Data set [3] in a line: Selectivity ratio of IC50 for PI3Kalpha to IC50 for PI3Kdelta.
A short description of data set [4]: Selectivity ratio of IC50 for PI3Kbeta to IC50 for PI3Kdelta.
Data set [5] concerns the target T1, Phosphatidylinositol 4,5-bisphosphate 3-kinase catalytic subunit delta isoform (Homo sapiens, UniProt O00329).
T1 sequence (O00329 whole entry): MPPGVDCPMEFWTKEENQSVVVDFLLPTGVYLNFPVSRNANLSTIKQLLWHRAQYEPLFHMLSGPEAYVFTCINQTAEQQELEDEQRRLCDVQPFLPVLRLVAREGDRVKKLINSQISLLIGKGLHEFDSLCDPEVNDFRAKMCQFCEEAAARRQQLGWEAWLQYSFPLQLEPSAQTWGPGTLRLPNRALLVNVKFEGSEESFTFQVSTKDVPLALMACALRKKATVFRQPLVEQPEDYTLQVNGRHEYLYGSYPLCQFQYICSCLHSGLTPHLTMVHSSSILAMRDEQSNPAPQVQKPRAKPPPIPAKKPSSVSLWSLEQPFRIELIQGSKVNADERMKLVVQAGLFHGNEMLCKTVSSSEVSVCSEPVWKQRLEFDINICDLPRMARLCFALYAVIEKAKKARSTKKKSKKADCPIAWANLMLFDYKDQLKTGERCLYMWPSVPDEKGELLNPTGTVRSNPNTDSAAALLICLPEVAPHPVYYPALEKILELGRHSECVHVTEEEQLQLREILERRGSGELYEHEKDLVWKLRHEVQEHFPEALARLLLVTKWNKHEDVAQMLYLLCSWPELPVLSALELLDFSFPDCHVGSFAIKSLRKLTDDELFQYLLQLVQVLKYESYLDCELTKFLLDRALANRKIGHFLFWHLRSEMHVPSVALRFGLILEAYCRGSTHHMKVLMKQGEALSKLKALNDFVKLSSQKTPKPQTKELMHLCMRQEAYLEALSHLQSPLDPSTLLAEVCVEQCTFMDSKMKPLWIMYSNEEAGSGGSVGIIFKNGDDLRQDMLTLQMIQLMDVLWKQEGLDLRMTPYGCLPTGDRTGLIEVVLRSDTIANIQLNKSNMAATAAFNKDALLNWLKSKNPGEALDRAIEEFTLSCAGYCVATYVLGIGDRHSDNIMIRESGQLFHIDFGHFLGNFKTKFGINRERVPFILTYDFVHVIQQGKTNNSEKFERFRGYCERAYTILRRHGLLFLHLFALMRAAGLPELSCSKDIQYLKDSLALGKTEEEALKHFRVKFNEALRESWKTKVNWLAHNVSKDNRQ
Description: Binding affinity to PI3Kdelta after 30 mins by competitive fluorescence polarization assay

Data set [6] is described as follows: Volume of distribution at steady state in […] Wistar rat at 0.5 mg/kg, iv and 2 mg/kg, po. In kind it is ADME, organism-based. The settings on record: in vivo, read-out: Vdss.
The test system of data set [7] is Liver microsomes. The data set is described as follows: Metabolic stability in human liver microsomes. In kind it is ADME, Microsome. For orientation: Liver microsomes are vesicles of endoplasmic reticulum, rich in cytochrome P450 enzymes.
The test system of data set [8] is Liver microsomes. Put plainly: Metabolic stability in rat liver microsomes. In kind it is ADME, Microsome.
Data set [9] is described as follows: Selectivity ratio of IC50 for PI3Kgamma to IC50 for PI3Kdelta.
For data set [10], the target named is Cytochrome P450 3A4 (Homo sapiens, UniProt P08684). Put plainly: (§1) Time dependent inhibition of CYP3A4 in human liver microsomes preincubated for 30 mins. In kind it is ADME, Microsome.
Chain of Cytochrome P450 3A4 (P08684 whole entry): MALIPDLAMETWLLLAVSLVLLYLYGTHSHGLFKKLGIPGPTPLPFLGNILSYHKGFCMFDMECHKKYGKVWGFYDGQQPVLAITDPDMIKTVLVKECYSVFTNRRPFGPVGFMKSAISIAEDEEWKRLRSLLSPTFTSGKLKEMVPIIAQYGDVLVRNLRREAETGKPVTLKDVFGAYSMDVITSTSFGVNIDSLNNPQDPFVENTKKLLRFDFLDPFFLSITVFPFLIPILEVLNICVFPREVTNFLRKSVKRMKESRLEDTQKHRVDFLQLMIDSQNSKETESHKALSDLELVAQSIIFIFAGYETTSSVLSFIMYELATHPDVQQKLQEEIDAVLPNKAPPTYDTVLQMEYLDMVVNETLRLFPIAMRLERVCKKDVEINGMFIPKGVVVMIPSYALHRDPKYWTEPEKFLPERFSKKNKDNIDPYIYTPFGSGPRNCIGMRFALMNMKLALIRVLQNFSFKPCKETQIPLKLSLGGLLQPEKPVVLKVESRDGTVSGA
For data set [11], the target named is CYP3A4 (Homo sapiens, UniProt P08684). The data set is described as §1. In kind it is ADME, Microsome. To be noted: human, liver microsomes.
Chain of CYP3A4 (P08684 whole entry): as above

From ChEMBL document CHEMBL2163297, “Discovery of novel PI3-kinase δ specific inhibitors for the treatment of rheumatoid arthritis: taming CYP3A4 time-dependent inhibition” (J Med Chem, 2012) come the findings set out here.

Structures are written as SMILES.

As to `CC(C)(C(N)=O)N1CCN(Cc2cc3nc(-c4c(F)ccc5[nH]ccc45)nc(N4CCOCC4)c3s2)CC1`, in data set [1], the clearance turned out to be 31.3 mL/min/kg. This compound returned a bioavailability in [2] of 75.2%. Besides, the Ratio IC50 was found to be 194 in data set [3], 102 in data set [4] and 1880 in [9]. The half-maximal inhibitory concentration (IC50) in data set [5] is 3 nM; in data set [10], 1500 nM. Further, the Vd in data set [6] was determined as 2.38 L/kg. The Stability in [7] is recorded as 82.5%; in data set [8] it was 90.8%. Also, in data set [10], the Ki came to 6600 nM. For the same compound, in data set [11], the kinact at 30 min was 0.00123 s⁻¹.

Broadly, the bioavailability is the share of a dose that reaches the circulation, judged against a reference dose that is usually intravenous. High values mean good availability, low ones poor availability. What is called IC50 is the concentration that inhibits the measured activity by half. A high value points to weaker potency in that assay. Usually kinact stands for the rate constant of inactivation at saturating inhibitor.
